Results as given in patent publication EP2730585B1, “PROTEIN-P[…] OBTAINED FROM TISSUES OF EMBRYOS OF HOOFED ANIMALS , USE ON SKIN TISSUE, METHOD FOR PRODUCING SAID COMPLEX AND PHARMACEUTICAL COMPOSITION” (Aktsionernoe Obschestvo "Pharm-Sintez", priority 2011, dated 2012).

Test system: mice marrow cells
Details: 20 mg/kg
Experimental: The study objective was detection and quantitative estimate of cytogenetic (mutagenic) activity of pharmacologic substances in polychromatophil cells (PCC) of mammal marrow. The method is based on microscopic recording of cells with micronuclei.
The experiments were performed to 2 months old male and female F1 (CBAx C57BI6/J) cross-breed mice weighing 18-20 g. Each group included 6 animals. The animals were kept at 12 hours light pattern with free food and water access. Animal experiments for assessment of mutagenic properties of the protein/polypeptide complex with single and five-time dosing were conducted in compliance with official records. Three sessions of experiments were carried out with corresponding controls: therapeutic dose was tested on male animals with a single introduction; subtoxic dose was tested on male animals with a single introduction; therapeutic dose was tested on male animals with a single introduction; subtoxic dose was tested on male animals and female with five-time introduction.
Taking into account that the possible presumed method for usage of the PPC at a clinic was intracutaneous, subcutaneous introduction, and external application, in this study subcutaneous introduction of the substance to mice was used. The PPC complex dosing for assessment of mutagenic activity was calculated based on the maximum human recommended daily therapeutic dose (TD). Subcutaneous introduction of PPC was recommended in the amount of 0.2 to 6 ml at 0.1 mg/ml concentration. In this case, a human therapeutic dose (TD), including a child's dose, can be 0.08 mg/kg/daily. In order to calculate an experiment dosing for mice, a conversion factor is recommended that takes into account a human or animal body surface area to weight ratio. In our study, it was 8.33. Therefore, the mice TD was approximately 8.33 x human TD (0.7 mg/kg).
As a subtoxic dose, 10mg/kg, the maximum possible in this experiment conditions dosing was used, as the substance was presented in 0.1 mg/ml concentration, and the normally used amount of substance for mice is 0.1 ml per 10 g. […]

Structure (SMILES): O=P1(N(CCCl)CCCl)NCCCO1 (stereo not drawn) [Cyclophosphamide, cyclophosphamide]
- polychromatophilic to normochromatic erythrocytes ratio (compared to control P<0.005): found to shift to the latter
- frequency of micronucleus cells (male mice): 62.1%
- increased frequency of micronucleus cells (male mice, against reference, P<0.001): 19.6 times
